Laboratory results: patent publication US10506807B2, “Halogen-substituted phenoxyphenylamidines and the use thereof as fungicides” (priority 2015, dated 2019)
Read-outs that look alike come from different tables or passages of the source.

What was measured:
soy bean plants = assay: Plant compatibility test using soy bean plants; type: in vivo; settings: soy bean plants sprayed, 1000 ppm active compound, evaluated 6 days after application; 0% no damages, 100% totally damaged
Method: Plant Compatibility Test Using Soy Bean Plants • Solvent: 24.5 parts by weight of acetone • 24.5 parts by weight of dimethylacetamide • Emulsifier: 1 part by weight of alkylaryl polyglycol ether To produce a suitable preparation of active compound, 1 part by weight of active compound is mixed with the stated amounts of solvent and emulsifier, and the concentrate is diluted with water to the desired concentration. Young plants are sprayed with the preparation of active compound at the stated application rate. The plants are then placed in a greenhouse at approximately 21° C. and a relative atmospheric humidity of approximately 80%. The test is evaluated 6 days after application and comprises plant damages like leaf deformation, chlorosis, necrosis, shoot damage or stunting. The results are summarized in table V. 0% means no damages are observed, while 100% means that the plants are totally damaged.

[1] = Log P by HPLC on reversed phase columns (EEC directive 79/831 Annex V.A8); type: physicochemical; settings: LC-UV
Method: Measurement of Log P values was performed according to EEC directive 79/831 Annex V.A8 by HPLC (High Performance Liquid Chromatography) on reversed phase columns with the following methods: • ^[a] Log P value is determined by measurement of LC-UV, in an acidic range, with 0.1% formic acid in water and acetonitrile as eluent (linear gradient from 10% acetonitrile to 95% acetonitrile). • ^[b] Log P value is determined by measurement of LC-UV, in a neutral range, with 0.001 molar ammonium acetate solution in water and acetonitrile as eluent (linear gradient from 10% acetonitrile to 95% acetonitrile). […] Lambda-max-values were determined using UV-spectra from 200 nm to 400 nm and the peak values of the chromatographic signals.

[2] = Hydrolysis stability test in homogeneous aqueous solution; type: physicochemical
From the text: Stability Towards Hydrolysis in Homogeneous Aqueous Solution—Hydrolysis Stability Test The chemical stability towards hydrolysis of the phenylamidines described in the prior art is good but an improved stability may be an advantage during the preparation and formulation processes in a large scale. The improved stability towards hydrolysis was proven by a hydrolysis stability test as described below: To produce a suitable preparation of active compound for the hydrolysis stability test, a 1000 ppm stock solution (1 mg/mL) of active compound in acetonitrile is prepared. Three aliquots of 100 μL are pipetted into HPLC vials and diluted with 750 μL acetonitrile. In each vial 850 μL of the appropriate buffer solution (pH4, pH7 and pH9, CertiPUR, Fa. Merck) is added. The buffer containing HPLC vials are incubated in a heated sample tray at 50° C. for 24 hours. The amount A of the active compound is analyzed by HPLC (UV-peak areas at 210 nm) at eight points in time t: 0 min, 140 min, 350 min, 560 min, 770 min, 980 min, 1190 min, 1400 min. The half-life time (T1/2) of each active compound is calculated via linear regression by using the following equations (first order degradation assumed): [formula] [formula] In table III the results of the hydrolysis stability test are shown for the compounds (I-01), (I-02), (I-03) and (I-04) at various pH-values. […] 337 known from WO2008/110278. […] This increased stability will be of advantage during the preparation and formulation processes in a large scale compared to known amidines. The data are to be seen merely by way of example and are not limiting for the purposes of the invention.

[3] = Photolysis stability test; type: physicochemical
From the text: Stability Towards Photolysis—Photolysis Stability Test
The stability towards photolysis of the phenylamidines described in the prior art is good but an improved stability towards photolysis may be an advantage as it could offer a longer lasting efficacy when applied to plants by foliar application. The improved stability towards photolysis was proven by a […] as described below: To produce a suitable preparation of active compound for the photolysis stability test, a 1000 ppm stock solution (1 mg/mL) of active compound in acetonitrile is prepared. Aliquots of 25 μL of this stock solution are pipetted in three wells of a Bio-one microtiter plate (MTP) UVStar 96 (Fa. Greiner, Art. No. 655801). The MTP is dried overnight in the dark and then irradiated at 30° C. and 480 W/m^2 with a UV irradiation device SUNTEST XLS+ or SUNTEST CPS (Fa. Atlas). The amount A of the active compound is analyzed by HPLC (UV-peak areas at 210 nm) at five points in time t: 0 h, 2 h, 4 h, 6 h, 24 h by using the following method: 200 μL acetonitrile is added in the respective well of the MTP and the MTP is sealed with a Bio-one sealing foil, viewseal 80/140 mm (Fa. Greiner, Art. No. 676070). The MTPs are sonicated for 3 minutes and analysed by HPLC. The half-life time (T) of each active compound is calculated via linear regression by using the following equations (first order degradation assumed): […]
In table IV the results of the photolysis stability test are shown for the compounds (I-01), (I-02), (I-03) and (I-04). […] This increased chemical stability towards photolysis will be of advantage as it will offer a longer lasting efficacy when applied to plants by foliar application compared to known amidines. The data are to be seen merely by way of example and are not limiting for the purposes of the invention.

Phakopsora pachyrhizi = assay: In vivo preventive test on Phakopsora (soybeans); settings: 100 ppm of active ingredient, preventive spray on soybeans, evaluated 7 days after inoculation
Method: Example: In Vivo Preventive Test on Phakopsora Test (Soybeans)
• Solvent: 24.5 parts by weight of acetone • 24.5 parts by weight of dimethylacetamide • Emulsifier: 1 part by weight of alkylaryl polyglycol ether
To produce a suitable preparation of active compound, 1 part by weight of active compound is mixed with the stated amounts of solvent and emulsifier, and the concentrate is diluted with water to the desired concentration.
To test for preventive activity, young plants are sprayed with the preparation of active compound at the stated rate of application. After the spray coating has dried on, the plants are inoculated with an aqueous spore suspension of the causal agent of soybean rust (Phakopsora pachyrhizi) and stay for 24 h without light in an incubation cabinet at approximately 24° C. and a relative atmospheric humidity of 95%.
The plants remain in the incubation cabinet at approximately 24° C. and a relative atmospheric humidity of approximately 80% and a day/night interval of 12 h.
The test is evaluated 7 days after the inoculation. 0% means an efficacy which corresponds to that of the untreated control, while an efficacy of 100% means that no disease is observed.

[4] = acidic range, 0.1% formic acid in water and acetonitrile as eluent, read-out: LogP [a]
[5] = pH 7, read-out: T1/2 (pH 7) (converted)
[6] = pH 9, read-out: T1/2 (pH 9) (converted)
[7] = neutral range, 0.001 molar ammonium acetate solution in water and acetonitrile as eluent, read-out: LogP [b]

chromatographic logP [1, 4] | half-life at 58.8 µg/mL [2, 5] [h] | half-life at 58.8 µg/mL [2, 6] [h] | half-life at 25 µg/well [3] [h] | chromatographic logP [1, 7] | Structure (SMILES) | Necrosis in % (soy bean plants) [%] | efficacy (Phakopsora pachyrhizi)
– | – | – | – | – | CCN(C)/C=N/c1cc(C)c(Oc2ccccc2F)cc1C [Compound no.337] | 90 | –
– | – | – | – | – | CCN(C)/C=N/c1cc(C)c(Oc2ccccc2)cc1C [Compound no. 1] | 90 | –
1.66 | 52 | 47 | > 200 | – | CCN(C)/C=N/c1cc(C)c(Oc2ccccc2F)cc1Cl [Example I-01, N′-[2-chloro-4-(2-fluorophenoxy)-5-methylphenyl]-N-ethyl-N-methylimidoformamide] | 20 | at least 70%
1.76 | 160 | 140 | 185 | – | CCN(C)C=Nc1cc(C)c(Oc2ccccc2F)cc1C(F)F [Example I-02, N′-[2-(difluoromethyl)-4-(2-fluorophenoxy)-5-methylphenyl]-N-ethyl-N-methylimidoformamide] | – | –
1.66 | 68 | 51 | 178 | 4.53 | CCN(C)C=Nc1cc(C)c(Oc2ccccc2F)cc1Br [Example I-03, N′-[2-bromo-4-(2-fluorophenoxy)-5-methylphenyl]-N-ethyl-N-methylimidoformamide] | – | –
1.84 | 64 | 58 | > 200 | 4.97 | CCN(C)C=Nc1cc(C)c(Oc2ccccc2Cl)cc1Br [Example I-04, N′-[2-bromo-4-(2-chlorophenoxy)-5-methylphenyl]-N-ethyl-N-methylimidoformamide] | – | –
1.58 | 51 | 47 | – | – | CCN(C)C=Nc1cc(C)c(Oc2ccccc2Cl)cc1Cl [Example I-05, N′-[2-chloro-4-(2-chlorophenoxy)-5-methylphenyl]-N-ethyl-N-methylimidoformamide] | – | –
1.78 | – | – | – | – | CCN(C)C=Nc1cc(C)c(Oc2ccccc2I)cc1Cl [Example I-06, N′-[2-chloro-4-(2-iodophenoxy)-5-methylphenyl]-N-ethyl-N-methylimidoformamide] | – | –
1.81 | 63 | 57 | – | – | CCN(C)C=Nc1cc(C)c(Oc2ccccc2Br)cc1Br [Example I-07, N′-[2-bromo-4-(2-bromophenoxy)-5-methylphenyl]-N-ethyl-N-methylimidoformamide] | – | –
– | – | – | – | 3.53 | Cc1cc(N)c(Br)cc1Oc1ccccc1Cl [VIII-04, 2-Bromo-4-(2-chlorophenoxy)-5-methylaniline] | – | –

Structure (SMILES) | chromatographic logP [1, 4] | half-life at 58.8 µg/mL [2, 5] [h] | half-life at 58.8 µg/mL [2, 6] [h] | half-life at 25 µg/well [3] [h] | chromatographic logP [1, 7] | Necrosis in % (soy bean plants) [%] | efficacy (Phakopsora pachyrhizi)
Cc1cc([N+](=O)[O-])c(C(F)F)cc1Oc1ccccc1F [VI-02, 1-(Difluoromethyl)-5-(2-fluorophenoxy)-4-methyl-2-nitrobenzene] | 3.97 | – | – | – | – | – | –
Cc1cc([N+](=O)[O-])c(Br)cc1Oc1ccccc1Cl [VI-04, 4-Bromo-2-(2-chlorophenoxy)-1-methyl-5-nitrobenzene] | 4.68 | – | – | – | – | – | –
